According to patent USRE42890E1, “Furazanobenzimidazoles” (Basilea Pharmaceutica AG, priority 2003, dated 2011):
Read-outs that look alike come from different tables or passages of the source.

Tests used:
[1] = system: adherent cells or suspension cells; assay: Hoechst 33342 nuclear staining (fraction of apoptotic nuclei); assay type: cell-based; set-up: key: 0 relating to no activity; 1 relating to weak activity comprising less than 70% of the cells; score 2 relating to strong activity comprising more than 70% of the cells
Jurkat = assay: MTS proliferation assay, Jurkat; assay type: cell-based, human; conditions: 72 h incubation, read-out: MTS proliferation assay IC 50 Jurkat
Procedure, shortened: (§1)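 Absorbance at 492 nm after 3 h with MTS reagent gave proliferation. This followed 72 h compound exposure (final 0.3, 1, 3, 10 μM) at 37 °C and 7.5% CO2. Cells had been plated 24 h earlier in complete RPMI-1640 with 5% or 10% FCS.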

MRC5 = assay: MTS proliferation assay, MRC5; assay type: cell-based; conditions: MRC5, 72 h incubation, read-out: MTS proliferation assay IC 50 MRC5
Procedure, shortened: (§2)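 Antiproliferative read-out by MTS (3 h, A492) after 72 h compound exposure at final 0.3–10 μM (four concentrations). Cells were plated 24 h earlier in RPMI-1640 containing 5% or 10% FCS, cultured at 37 °C with 7.5% CO2.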

HT1080 = assay: MTS proliferation assay, HT1080; assay type: cell-based, human; conditions: HT1080, 72 h incubation, read-out: MTS proliferation assay IC 50 HT1080
Procedure, shortened: as §1

Jily = assay: MTS proliferation assay, Jily; assay type: cell-based; conditions: 72 h incubation, read-out: MTS proliferation assay IC 50 Jily
Procedure, shortened: as §2

HeLa = assay: MTS proliferation assay, HeLa; assay type: cell-based, human; conditions: 72 h incubation, read-out: MTS proliferation assay IC 50 HeLa
Procedure, shortened: as §1

SMILES | Hoechst 33342 nuclear staining score ([1]; H460, conc 0.01 μm) | Hoechst 33342 nuclear staining score ([1]; H460, conc 0.1 μm) | Hoechst 33342 nuclear staining score ([1]; H460, conc 1 μm) | Hoechst 33342 nuclear staining score ([1]; HeLa, conc 0.01 μm) | Hoechst 33342 nuclear staining score ([1]; HeLa, conc 0.1 μm) | Hoechst 33342 nuclear staining score ([1]; HeLa, conc 1 μm) | Hoechst 33342 nuclear staining score ([1]; Jily, conc 0.01 μm) | Hoechst 33342 nuclear staining score ([1]; Jily, conc 0.1 μm) | Hoechst 33342 nuclear staining score ([1]; Jily, conc 1 μm) | Hoechst 33342 nuclear staining score ([1]; Jurkat, conc 0.01 μm) | Hoechst 33342 nuclear staining score ([1]; Jurkat, conc 0.1 μm) | Hoechst 33342 nuclear staining score ([1]; Jurkat, conc 1 μm) | Hoechst 33342 nuclear staining score ([1]; MRC5, conc 0.01 μm) | Hoechst 33342 nuclear staining score ([1]; MRC5, conc 0.1 μm) | Hoechst 33342 nuclear staining score ([1]; MRC5, conc 1 μm) | Hoechst 33342 nuclear staining score ([1]; PBLs, conc 0.01 μm) | Hoechst 33342 nuclear staining score ([1]; PBLs, conc 0.1 μm) | Hoechst 33342 nuclear staining score ([1]; PBLs, conc 1 μm) | IC50 (Jurkat) | IC50 (Jily) | other results
Nc1nonc1-c1nc2ccccc2n1COc1ccc(Cl)c(Cl)c1 [Example 92] | 0 | 2 (score 2 relating to strong activity comprising more than 70% of the cells) | 2 (score 2 relating to strong activity comprising more than 70% of the cells) | 0 | 2 (score 2 relating to strong activity comprising more than 70% of the cells) | 2 (score 2 relating to strong activity comprising more than 70% of the cells) | 0 | 2 (score 2 relating to strong activity comprising more than 70% of the cells) | 2 (score 2 relating to strong activity comprising more than 70% of the cells) | 0 | 2 (score 2 relating to strong activity comprising more than 70% of the cells) | 2 (score 2 relating to strong activity comprising more than 70% of the cells) | 0 | 2 (score 2 relating to strong activity comprising more than 70% of the cells) | 2 (score 2 relating to strong activity comprising more than 70% of the cells) | 0 | 0 | 0 | 10 to 100 nM | 10 to 100 nM | IC50 (MRC5): 100 to 1000 nM; IC50 (HT1080): 10 to 100 nM; IC50 (HeLa): 10 to 100 nM
COc1ccc(C(=O)Cn2c(-c3nonc3NCCC#N)nc3ccccc32)cc1 [Example 48] | 0 | 0 | 2 (score 2 relating to strong activity comprising more than 70% of the cells) | 0 | 2 (score 2 relating to strong activity comprising more than 70% of the cells) | 2 (score 2 relating to strong activity comprising more than 70% of the cells) | 0 | 2 (score 2 relating to strong activity comprising more than 70% of the cells) | 2 (score 2 relating to strong activity comprising more than 70% of the cells) | 0 | 2 (score 2 relating to strong activity comprising more than 70% of the cells) | 2 (score 2 relating to strong activity comprising more than 70% of the cells) | 0 | 2 (score 2 relating to strong activity comprising more than 70% of the cells) | 2 (score 2 relating to strong activity comprising more than 70% of the cells) | 0 | 0 | 0 | < 10 nM | 10 to 100 nM | IC50 (MRC5): 10 to 100 nM; IC50 (HT1080): 10 to 100 nM; IC50 (HeLa): 10 to 100 nM
COc1cc(C(=O)Cn2c(-c3nonc3N)nc3ccccc32)ccc1O [Example 74, 4-[1-(3-Methoxy-4-hydroxyphenacyl)-1H-benzimidazol-2-yl]-furazan-3-yl-amine] | 0 | 0 | 2 (score 2 relating to strong activity comprising more than 70% of the cells) | 0 | 0 | 2 (score 2 relating to strong activity comprising more than 70% of the cells) | 0 | 0 | 2 (score 2 relating to strong activity comprising more than 70% of the cells) | 0 | 0 | 2 (score 2 relating to strong activity comprising more than 70% of the cells) | 0 | 0 | 1 (1 relating to weak activity comprising less than 70% of the cells) | 0 | 0 | 0 |  | 100 to 1000 nM | IC50 (Jurkat; Homo sapiens): 100 to 1000 nM; IC50 (MRC5; Homo sapiens): 100 to 1000 nM; IC50 (HT1080; Homo sapiens, HT-1080): 100 to 1000 nM; IC50 (HeLa; Homo sapiens): 100 to 1000 nM
Nc1nonc1-c1nc2ccccc2n1COc1ccc(CO)cc1 [Example 97] | 0 | 0 | 2 (score 2 relating to strong activity comprising more than 70% of the cells) | 0 | 0 | 2 (score 2 relating to strong activity comprising more than 70% of the cells) | 0 | 0 | 2 (score 2 relating to strong activity comprising more than 70% of the cells) | 0 | 0 | 2 (score 2 relating to strong activity comprising more than 70% of the cells) | 0 | 0 | 0 | 0 | 0 | 0 | 100 to 1000 nM | 100 to 1000 nM | IC50 (MRC5): 100 to 1000 nM; IC50 (HT1080): 100 to 1000 nM; IC50 (HeLa): 100 to 1000 nM
